{"source": "paper PMC4979471", "about": "(Cell Death Discovery, 2015)", "key": {"JAK3": {"target": "T1, JAK3 (Homo sapiens, UniProt P52333)", "T1 construct": "purchased Reaction Biology Corp", "T1 sequence (P52333 1-1124)": "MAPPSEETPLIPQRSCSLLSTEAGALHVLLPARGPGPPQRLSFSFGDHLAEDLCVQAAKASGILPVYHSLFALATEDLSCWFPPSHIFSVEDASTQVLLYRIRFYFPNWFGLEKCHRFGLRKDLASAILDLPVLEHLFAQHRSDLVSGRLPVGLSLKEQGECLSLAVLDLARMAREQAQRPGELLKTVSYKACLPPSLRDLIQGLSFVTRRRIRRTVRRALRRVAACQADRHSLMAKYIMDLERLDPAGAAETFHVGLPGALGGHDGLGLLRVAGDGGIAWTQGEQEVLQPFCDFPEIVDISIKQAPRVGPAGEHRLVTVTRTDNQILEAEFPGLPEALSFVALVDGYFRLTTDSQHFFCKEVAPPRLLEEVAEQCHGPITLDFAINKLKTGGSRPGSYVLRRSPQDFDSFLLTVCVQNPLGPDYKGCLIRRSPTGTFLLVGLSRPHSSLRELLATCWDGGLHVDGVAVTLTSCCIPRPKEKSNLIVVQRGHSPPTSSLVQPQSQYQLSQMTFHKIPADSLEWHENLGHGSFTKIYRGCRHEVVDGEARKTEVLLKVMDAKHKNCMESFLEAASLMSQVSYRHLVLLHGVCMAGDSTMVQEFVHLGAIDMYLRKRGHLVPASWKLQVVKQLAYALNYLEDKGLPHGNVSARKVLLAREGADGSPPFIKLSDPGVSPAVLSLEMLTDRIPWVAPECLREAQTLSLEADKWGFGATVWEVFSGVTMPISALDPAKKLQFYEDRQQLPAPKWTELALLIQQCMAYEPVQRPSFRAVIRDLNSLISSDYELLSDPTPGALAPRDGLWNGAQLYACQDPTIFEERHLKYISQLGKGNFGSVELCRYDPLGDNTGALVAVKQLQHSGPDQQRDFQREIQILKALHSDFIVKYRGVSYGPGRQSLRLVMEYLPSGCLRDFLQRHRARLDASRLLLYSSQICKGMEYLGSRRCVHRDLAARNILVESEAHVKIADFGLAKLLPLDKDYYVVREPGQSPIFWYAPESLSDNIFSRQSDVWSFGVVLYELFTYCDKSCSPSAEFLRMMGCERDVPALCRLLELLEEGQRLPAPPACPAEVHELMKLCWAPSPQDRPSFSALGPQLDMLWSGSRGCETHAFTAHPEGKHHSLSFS", "test": "Kinase selectivity, P33-radiolabeled assay", "format": "biochemical", "conditions": "10 μM ATP", "method_in_brief": "(§1)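 Activity relative to DMSO controls (%) was measured for compound at 10 μM. Assays ran at 10 μM ATP, in duplicate.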"}, "FLT3": {"target": "T2, FLT3 (Homo sapiens, UniProt P36888)", "T2 construct": "purchased Reaction Biology Corp", "T2 sequence (P36888 27-993)": "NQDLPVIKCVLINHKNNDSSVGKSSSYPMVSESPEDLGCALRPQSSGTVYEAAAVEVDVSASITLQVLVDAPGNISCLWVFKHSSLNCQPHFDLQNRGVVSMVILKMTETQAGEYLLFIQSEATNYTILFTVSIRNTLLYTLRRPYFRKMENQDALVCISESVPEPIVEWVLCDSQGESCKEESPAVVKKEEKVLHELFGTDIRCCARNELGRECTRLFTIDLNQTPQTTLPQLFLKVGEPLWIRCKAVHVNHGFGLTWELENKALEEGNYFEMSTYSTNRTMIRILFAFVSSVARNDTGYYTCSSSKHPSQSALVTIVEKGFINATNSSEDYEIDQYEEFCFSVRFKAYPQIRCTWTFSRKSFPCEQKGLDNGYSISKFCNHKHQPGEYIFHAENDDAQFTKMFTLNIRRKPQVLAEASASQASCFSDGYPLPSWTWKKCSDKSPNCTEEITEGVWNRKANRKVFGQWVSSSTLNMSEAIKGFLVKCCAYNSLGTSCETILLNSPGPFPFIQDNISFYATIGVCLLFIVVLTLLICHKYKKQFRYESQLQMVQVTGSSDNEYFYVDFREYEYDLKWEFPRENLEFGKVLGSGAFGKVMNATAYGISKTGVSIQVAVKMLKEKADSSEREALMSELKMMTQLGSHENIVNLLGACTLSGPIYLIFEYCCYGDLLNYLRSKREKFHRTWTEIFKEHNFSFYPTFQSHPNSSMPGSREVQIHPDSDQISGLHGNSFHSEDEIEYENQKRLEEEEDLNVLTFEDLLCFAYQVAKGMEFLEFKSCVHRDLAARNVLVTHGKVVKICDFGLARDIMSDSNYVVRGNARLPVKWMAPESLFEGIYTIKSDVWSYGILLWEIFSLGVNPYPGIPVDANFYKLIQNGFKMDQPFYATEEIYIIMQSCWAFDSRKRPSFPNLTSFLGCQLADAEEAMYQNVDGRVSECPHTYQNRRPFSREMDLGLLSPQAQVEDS", "test": "Kinase selectivity, P33-radiolabeled assay", "format": "biochemical", "conditions": "10 μM ATP", "method_in_brief": "as §1"}, "[1]": {"conditions": "read-out: % Enzyme Activity (relative to DMSO controls) AVG"}, "[2]": {"conditions": "read-out: % Enzyme Activity (relative to DMSO controls) Data 1"}, "[3]": {"conditions": "read-out: % Enzyme Activity (relative to DMSO controls) Data 2"}}, "note": "Like-named read-outs stand apart in the source and are kept apart here."}
{"smiles": "CC(C)(C)C(=O)N1N=CC[C@H]1c1ccccc1", "note": "[GSK′963]", "values": [{"measurement": "remaining activity at 10 µM", "setting": "JAK3; [1]", "value": 106, "unit": "%"}, {"measurement": "remaining activity at 10 µM", "setting": "JAK3; [2]", "value": 105, "unit": "%"}, {"measurement": "remaining activity at 10 µM", "setting": "JAK3; [3]", "value": 106, "unit": "%"}, {"measurement": "remaining activity at 10 µM", "setting": "FLT3; [1]", "value": 101, "unit": "%"}, {"measurement": "remaining activity at 10 µM", "setting": "FLT3; [2]", "value": 98.7, "unit": "%"}, {"measurement": "remaining activity at 10 µM", "setting": "FLT3; [3]", "value": 103, "unit": "%"}]}
